We go through 24 compounds from US10689377B2 (Mirati Therapeutics, Inc., priority 2017, dated 2020).

Chain of KRas G12C (P01116 1-188 isoform P01116-2 G12C): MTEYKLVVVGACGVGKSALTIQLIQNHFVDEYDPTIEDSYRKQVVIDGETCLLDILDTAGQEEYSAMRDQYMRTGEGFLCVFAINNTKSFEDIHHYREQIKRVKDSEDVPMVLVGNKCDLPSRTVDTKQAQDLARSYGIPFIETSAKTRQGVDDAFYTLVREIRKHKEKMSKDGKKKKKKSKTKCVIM

This assay has as its target KRas G12C (Homo sapiens, UniProt P01116, G12C). Put plainly: Cellular inhibition of KRas G12C measured by Phospho-ERK in NCI-H358 cells. The assay is classed as cell-based. To be noted: pERK(Thr202/Tyr204) normalized with GAPDH, NCI-H358 cells, 3 hours; read-out: IC50. A digest of the protocol:
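NCI-H358 cells were allowed to attach for 8-12 hours, then exposed to compounds for 3 hours at 0.5% DMSO final. After formaldehyde fixation and methanol permeabilization, phospho-ERK (Thr202/Tyr204) was detected by in-cell immunofluorescence and normalized to GAPDH; IC50 came from a 4-parameter fit of percent-of-DMSO values.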
For the compound `C=CC(=O)N1CCN(c2nc(OCCCO)nc3c2CCN(c2cc(O)cc4ccccc24)C3)CC1` [Example 184, 1-[4-[7-(3-hydroxy-1-naphthyl)-2-(3-hydroxypropoxy)-6,8-dihydro-5H-pyrido[3,4-d]pyrimidin-4-yl]piperazin-1-yl]prop-2-en-1-one], the IC50 (commonly the concentration that inhibits the measured activity by half) is over 1 µM.

Consider `C=CC(=O)N1CCN(c2nc(OC[C@@H]3CCCN3C)nc3c2CCN(c2cc(O)cc4ccccc24)C3)[C@@H](C)C1` [Example 202, 1-((S)-4-(7-(3-hydroxynaphthalen-1-yl)-2-(((S)-1-methylpyrrolidin-2-yl)methoxy)-5,6,7,8-tetrahydropyrido[3,4-d]pyrimidin-4-yl)-3-methylpiperazin-1-yl)prop-2-en-1-one], for which the IC50 is 0.0001 to 1 µM. In the case of `C=CC(=O)N1CCN(c2nc(O[C@H](C)CN(C)C)nc3c2CCN(c2cccc4ccccc24)C3)CC1CC#N` (stereo partly drawn) [Example 151, 2-(1-acryloyl-4-(2-(((R)-1-(dimethylamino)propan-2-yl)oxy)-7-(naphthalen-1-yl)-5,6,7,8-tetrahydropyrido[3,4-d]pyrimidin-4-yl)piperazin-2-yl)acetonitrile], the IC50 is over 1 µM.

For `C=CC(=O)N1CCN(c2nc(OCC(C)(C)N(C)C)nc3c2CCN(c2cccc4ccccc24)C3)CC1CC#N` (stereo not drawn) [Example 269, 2-(1-acryloyl-4-(2-(2-(dimethylamino)-2-methylpropoxy)-7-(naphthalen-1-yl)-5,6,7,8-tetrahydropyrido[3,4-d]pyrimidin-4-yl)piperazin-2-yl)acetonitrile], the IC50 fell in the range of 0.0001 to 1 µM. As to `C=CC(=O)N1CCN(c2nc(O[C@H](C)CN(C)C)nc3c2CCN(c2c(C)ccc4[nH]ncc24)C3)CC1` [Example 162, 1-[4-[2-[(1R)-2-(dimethylamino)-1-methyl-ethoxy]-7-(5-methyl-1H-indazol-4-yl)-6,8-dihydro-5H-pyrido[3,4-d]pyrimidin-4-yl]piperazin-1-yl]prop-2-en-1-one], the IC50 is over 1 µM. The figure for `C=CC(=O)N1CCN(c2nc(OC(C)CNC)nc3c2CCN(c2cc(O)cc4ccccc24)C3)CC1` (stereo not drawn) [Example 70, 1-(4-(7-(3-hydroxynaphthalen-1-yl)-2-((1-(methylamino)propan-2-yl)oxy)-5,6,7,8-tetrahydropyrido[3,4-d]pyrimidin-4-yl)piperazin-1-yl)prop-2-en-1-one] is over 1 µM; for `C=CC(=O)N1CCN(c2nc(O[C@H](C)CN(C)C)nc3c2CCN(c2cc(O)c(F)c4ccccc24)C3)CC1` [Example 124, (R)-1-(4-(2-((1-(dimethylamino)propan-2-yl)oxy)-7-(4-fluoro-3-hydroxynaphthalen-1-yl)-5,6,7,8-tetrahydropyrido[3,4-d]pyrimidin-4-yl)piperazin-1-yl)prop-2-en-1-one] it is over 1 µM. The same measure for `C=CC(=O)N1CCN(c2nc(OC[C@H]3CCCN3C)nc3c2CCN(c2cccc(F)c2C(F)(F)F)C3)C[C@@H]1CC#N` [Example 274, 2-((S)-1-acryloyl-4-(7-(3-fluoro-2-(trifluoromethyl)phenyl)-2-(((R)-1-methylpyrrolidin-2-yl)methoxy)-5,6,7,8-tetrahydropyrido[3,4-d]pyrimidin-4-yl)piperazin-2-yl)acetonitrile]: 0.0001 to 1 µM; for `C=CC(=O)N1CCN(c2nc(OC[C@@H]3[C@H](F)CCN3C)nc3c2CCN(c2cccc4ccccc24)C3)C[C@@H]1CC#N` [Example 440, 2-((S)-1-acryloyl-4-(2-(((2R,3R)-3-fluoro-1-methylpyrrolidin-2-yl)methoxy)-7-(naphthalen-1-yl)-5,6,7,8-tetrahydropyrido[3,4-d]pyrimidin-4-yl)piperazin-2-yl)acetonitrile]: 0.0001 to 1 µM. The same measure for `C=CC(=O)N1CCN(c2nc(OC[C@@H]3C[C@H](OC)CN3C)nc3c2CCN(c2cccc4ccccc24)C3)CC1CC#N` (stereo partly drawn) [Example 222, 2-(1-acryloyl-4-(2-(((2S,4S)-4-methoxy-1-methylpyrrolidin-2-yl)methoxy)-7-(naphthalen-1-yl)-5,6,7,8-tetrahydropyrido[3,4-d]pyrimidin-4-yl)piperazin-2-yl)acetonitrile]: 0.0001 to 1 µM.

Take `C=CC(=O)N1CCN(c2nc(O[C@H](C)CN(C)C)nc3c2CCN(c2cc(O)ccc2OC)C3)CC1` [Example 94, (R)-1-(4-(2-((1-(dimethylamino)propan-2-yl)oxy)-7-(5-hydroxy-2-methoxyphenyl)-5,6,7,8-tetrahydropyrido[3,4-d]pyrimidin-4-yl)piperazin-1-yl)prop-2-en-1-one]: the IC50 was over 1 µM. The figure for `C=CC(=O)N1CCN(c2nc(OC[C@H]3CN(C)C4(CC4)CO3)nc3c2CCN(c2cccc4ccccc24)C3)C[C@@H]1CC#N` [Example 448, 2-((S)-1-Acryloyl-4-(2-(((R)-4-methyl-7-oxa-4-azaspiro[2.5]octan-6-yl)methoxy)-7-(naphthalen-1-yl)-5,6,7,8-tetrahydropyrido[3,4-d]pyrimidin-4-yl)piperazin-2-yl)acetonitrile] is 0.0001 to 1 µM.

As for `C=CC(=O)N1CCN(c2nc(O[C@H](C)CN(C)C)nc3c2CCN(c2c(C)cccc2O)C3)CC1` [Example 95, (R)-1-(4-(2-((1-(dimethylamino)propan-2-yl)oxy)-7-(2-hydroxy-6-methylphenyl)-5,6,7,8-tetrahydropyrido[3,4-d]pyrimidin-4-yl)piperazin-1-yl)prop-2-en-1-one], the IC50 is over 1 µM. The same measure for `Cc1cccc2cccc(N3CCc4c(nc(OC[C@@H]5CCCN5C)nc4N4CCN(C(=O)/C=C/CN(C)C)[C@@H](CC#N)C4)C3)c12` [Example 459, 2-((S)-1-((E)-4-(dimethylamino)but-2-enoyl)-4-(7-(8-methylnaphthalen-1-yl)-2-(((S)-1-methylpyrrolidin-2-yl)methoxy)-5,6,7,8-tetrahydropyrido[3,4-d]pyrimidin-4-yl)piperazin-2-yl)acetonitrile]: 0.0001 to 1 µM; for `C=CC(=O)N1CCN(c2nc(OC[C@@H]3C[C@@H](F)CN3C(C)C)nc3c2CCN(c2cncc(F)c2C(F)(F)F)C3)C[C@@H]1CC#N` [Example 386, 2-((S)-1-acryloyl-4-(2-(((2S,4R)-4-fluoro-1-isopropylpyrrolidin-2-yl)methoxy)-7-(5-fluoro-4-(trifluoromethyl)pyridin-3-yl)-5,6,7,8-tetrahydropyrido[3,4-d]pyrimidin-4-yl)piperazin-2-yl)acetonitrile]: 0.0001 to 1 µM. `C=CC(=O)N1CCN(c2nc(O[C@H](C)CN3CC[C@H](O)C3)nc3c2CCN(c2cc(O)cc4ccccc24)C3)CC1` [Example 65, 1-(4-(7-(3-hydroxynaphthalen-1-yl)-2-(((R)-1-((S)-3-hydroxypyrrolidin-1-yl)propan-2-yl)oxy)-5,6,7,8-tetrahydropyrido[3,4-d]pyrimidin-4-yl)piperazin-1-yl)prop-2-en-1-one]: the IC50 is over 1 µM.

On to `C=C(C(=O)N1CCN(c2nc(OC[C@@H]3CCCN3C)nc3c2CCN(c2cccc(C)c2C)C3)C[C@@H]1CC#N)C(F)(F)F` [Example 487, 2-((S)-4-(7-(2,3-dimethylphenyl)-2-(((S)-1-methylpyrrolidin-2-yl)methoxy)-5,6,7,8-tetrahydropyrido[3,4-d]pyrimidin-4-yl)-1-(2-(trifluoromethyl)acryloyl)piperazin-2-yl)acetonitrile], for which the IC50 lay in the range of 0.0001 to 1 µM.

Consider `C=CC(=O)N1CCN(c2nc(-c3cccc(CN4CCOCC4)c3)nc3c2CCN(c2cc(O)cc4ccccc24)C3)CC1` [Example 186], for which the IC50 was over 1 µM.

For `C=CC(=O)N1CCN(c2nc(N3CCN(C)CC3)nc3c2CCN(c2cc(O)cc4ccccc24)C3)CC1` [Example 12, 1-(4-(7-(3-hydroxynaphthalen-1-yl)-2-(4-methylpiperazin-1-yl)-5,6,7,8-tetrahydropyrido[3,4-d]pyrimidin-4-yl)piperazin-1-yl)prop-2-en-1-one], the IC50 was over 1 µM.

As to `C=CC(=O)N1CCN(c2nc(OCCN3CCC(F)(F)C3)nc3c2CCN(c2cc(O)cc4ccccc24)C3)CC1` [Example 139, 1-[4-[2-[2-(3,3-difluoropyrrolidin-1-yl)ethoxy]-7-(3-hydroxy-1-naphthyl)-6,8-dihydro-5H-pyrido[3,4-d]pyrimidin-4-yl]piperazin-1-yl]prop-2-en-1-one], the IC50 was over 1 µM. Consider `C=CC(=O)N1CCN(c2nc(NC[C@@H]3CCCN3C)nc3c2CCN(c2cccc4ccccc24)C3)C[C@@H]1CC#N` [Example 408, 2-((S)-1-acryloyl-4-(2-((((S)-1-methylpyrrolidin-2-yl)methyl)amino)-7-(naphthalen-1-yl)-5,6,7,8-tetrahydropyrido[3,4-d]pyrimidin-4-yl)piperazin-2-yl)acetonitrile], for which the IC50 was over 1 µM. Consider `C=CC(=O)N1CCN(c2nc(OC[C@@H]3CCCN3C)nc3c2CCN(c2cccc4cc(F)ccc24)C3)CC1CC#N` (stereo partly drawn) [Example 290, 2-[4-[7-(6-fluoro-1-naphthyl)-2-[[(2S)-1-methylpyrrolidin-2-yl]methoxy]-6,8-dihydro-5H-pyrido[3,4-d]pyrimidin-4-yl]-1-prop-2-enoyl-piperazin-2-yl]acetonitrile], for which the half-maximal inhibitory concentration (IC50) lay within 0.0001 to 1 µM. In the case of `C=CC(=O)N1CCN(c2nc(OC[C@@H]3CCCN3C)nc3c2CCN(c2ccc(F)cc2C(F)(F)F)C3)CC1CC#N` (stereo partly drawn) [Example 413, 2-(1-acryloyl-4-(7-(4-fluoro-2-(trifluoromethyl)phenyl)-2-(((S)-1-methylpyrrolidin-2-yl)methoxy)-5,6,7,8-tetrahydropyrido[3,4-d]pyrimidin-4-yl)piperazin-2-yl)acetonitrile], the IC50 lay within 0.0001 to 1 µM. Regarding `C=CC(=O)N1CCN(c2nc(OC[C@@H]3CCCN3C)nc3c2CCN(c2cccc4ccccc24)C3)CC1` [Example 200, (S)-1-(4-(2-((1-methylpyrrolidin-2-yl)methoxy)-7-(naphthalen-1-yl)-5,6,7,8-tetrahydropyrido[3,4-d]pyrimidin-4-yl)piperazin-1-yl)prop-2-en-1-one], the IC50 was over 1 µM.
